Patent US5977150A, “Amino acid derivatives of diaryl 1,3,4-oxadiazolone” (Bristol-Myers Squibb Company, priority 1999, dated 1999)

Tests used:
[1] = Rapid screen of prodrug hydrolysis and release of the drug in plasma; type: in vitro ADME; settings: fresh rat plasma, 37° C., 10 μg/mL from a 1 mg/mL PEG-400 stock, analysis 5 minutes after incubation, HPLC
Protocol: A rapid screen to determine the ability of prodrugs to hydrolyze and release the drug (compound of Example 1) is conducted as follows. A 1 mg/mL stock solution of the prodrug is prepared in distilled water or acetonitrile or PEG-400. Plasma from freshly collected rat or human blood is used in this assay. To 1 mL of plasma at 37° C. was added 10 μL of stock solution of prodrug and mixed gently. Immediately after the mixing, 100 μL of plasma was removed and quenched with 300 μL of acetontrile (Zero time sample). Samples were also obtained at 30 minutes and quenched immediately. The quenched samples were centrifuged to obtain a clear supernatant for analysis. The stock solution, T=0 and T=30 samples were analyzed by a HPLC assay that separates the drug from the prodrug. Based on the relative peak areas of prodrug and drug in these samples, different prodrugs are characterized as fast, moderate and slow release agents. For example, in this model, the compound of Example 9 was dissolved in PEG-400 at a concentration of 1 mg/mL and incubated at 10 μg/mL in fresh rat plasma at 37° C.

[2] = tested on: cloned mammalian (mSlo or hSlo) BK; test: Two-electrode voltage clamp of cloned BK-mediated outward current expressed in Xenopus oocytes; type: cell-based; settings: 1 μM; at least 5 oocytes; IBTX 50 nM used to isolate BK current
Protocol: (§1) The ability of the compound of Example 1 to open BK channels and increase whole-cell outward (K^+) BK-mediated currents was assessed under voltage-clamp conditions by determining their ability to increase cloned mammalian (mSlo or hSlo) BK-mediated outward current heterologously expressed in Xenopus oocytes [Butler, A., et al., Science, 261, pp. 221-224 (1993); and Dworetzky, S. I., et al., Mol. Brain Res., 27, pp.189-193 (1994)]. The two BK constructs employed represent nearly structurally identical homologous proteins, and have proven to be pharmacologically identical in our tests. To isolate BK current from native (background, non-BK) current, the specific and potent BK channel-blocking toxin iberiotoxin (IBTX) [Galvez, A., et al., J. Biol. Chem, 265, pp. 11083-11090 (1990)] was employed at a supramaximal concentration (50 nM). The relative contribution of BK channels current to total outward current was determined by subtraction of the current remaining in the presence of IBTX (non-BK current) from the current profiles obtained in all other experimental conditions (control, drug, and wash). […]

[3] = tested on: non-BK native currents in the oocytes; test: Effect on non-BK (IBTX-insensitive) native currents in Xenopus oocytes under voltage clamp; type: cell-based; settings: at the tested concentration (1 μM)
Protocol: as §1

cortical infarct volume = test: Focal stroke model: permanent MCA and CCA occlusion with temporary right CCA occlusion; type: in vivo; settings: 10 μg/kg i.v. single bolus two hours after MCA occlusion; infarct measured 24 hours after MCAO; Wistar rat
Protocol: To determine the ability of the compounds of the present invention to reduce cell loss resulting from neuronal ischemia, a standard focal cerebral ischemia is induced by permanent occlusion of the left middle cerebral artery (MCA) and common carotid artery (CCA) with one hour occlusion of the right CCA in the Wistar rat. The surgeries are performed using the sub-temporal approach of A. Tamura, et al., J. Cereb. Blood Flow Metab., 1, pp. 53-60, (1981) and its modifications [K. Osborne, et al., J. Neurol Neurosurg. Psychiatry, 50, pp. 402-410 (1987) and S. Menzies, et al., Neurosurgery, 31, pp. 100-107, (1992).]
The compound of Example 1 was evaluated in the focal stroke model involving permanent occlusion of the left MCA (MCAO) and CCA (CCAO) and temporary occlusion of the right CCA in the Wistar rat. This procedure results in a reliably large neocortical infarct volume that is measured by means of vital dye exclusion in serial slices through the brain 24 hours after MCAO. In the present test, compounds were administered using an i.v. or i.p. route of administration two hours after occlusion.

| SMILES | conversion of prodrug to drug (compound of Example 1) in plasma [1] | BK current, % of control of IBTX-sensitive current [2] | effect on non-BK native currents in the oocytes [3] | reduction of cortical infarct volume vs vehicle-treated (water) control (cortical infarct volume) |
| --- | --- | --- | --- | --- |
| CN[C@@H](CC(C)C)C(=O)Oc1ccc(Cl)cc1Cn1nc(-c2ccc(C(F)(F)F)cc2)oc1=O [Example 9, 3-[(5-Chloro-2-hydroxyphenyl)methyl]-5-[4-(trifluoromethyl)phenyl]-1,3,4-oxadiazol-2(3H)-one, N-Methyl (L)-Leucine ester] | conversion of the compound of Example 9 to the compound of Example 1 |  |  |  |
| O=c1oc(-c2ccc(C(F)(F)F)cc2)nn1Cc1cc(Cl)ccc1O [Example 1, 3-[(5-Chloro-2-hydroxyphenyl)methyl]-5-[4-(trifluoromethyl)phenyl]-1,3,4-oxadiazol-2(3H)-one] |  | 126 % of control | did not effect non-BK native currents | about 18% |
